Experimental data taken from article PMC11741111, “Diversification of Lipopeptide Analogues Drives Versatility in Biological Activities” (Journal of Agricultural and Food Chemistry, 2025).

What was measured:
B. cinerea = test: Antifungal activity assay (fungal growth, OD600); assay type: cell-based, Botrytis cinerea; conditions: 24 h, 25 °C
Experimental: B. cinerea spores were harvested from sporulated plates with distilled water and filtered through a […] pore membrane to avoid mycelial contamination. 96-well plates containing 100 μL of PDB with 100 spores per well were used, and the corresponding analog concentrations were analyzed for antifungal activity. H2O2 (10 mM) was used as a positive control to induce fungal death. For this experiment, methanol concentrations used for lipopeptide treatment ranged from 2 to 6% for iturins, 0.08 to 0.5% for fengycins and 0.2 to 4% for surfactins. The highest methanol concentration used for each condition was added to the control. The plates were incubated for 24 h with agitation (150 rpm) at 25 °C. After incubation, the OD600 values of the inoculated plates were measured in a plate reader (FLUOstar Omega reader, BMG LabTech) to evaluate fungal growth within the treatments.

B. velezensis UMAF6639 [1] = test: Lipopeptide analog bacterial toxicity (growth dynamics, OD600); assay type: cell-based, Bacillus velezensis; conditions: LB, 28 °C, read every 20 min, triplicate; for toxicity to B. velezensis UMAF6639 (OD600 over 24 h), surfactin variants at the mixture concentration: each analog at 65.83 µM; for toxicity to B. velezensis UMAF6639 (OD600 over 24 h), surfactin variants at the mixture concentration / effect on B. velezensis UMAF6639 growth (OD600 over 24 h), surfactins at physiological concentration: Figure 6K-O; for effect on B. velezensis UMAF6639 growth (OD600 over 24 h), surfactins at physiological concentration: mix 65.83 µM, C12 3.67, C13 16.93, C14 20.49, C15 21.85, C16 4.11 µM; for effect on B. velezensis UMAF6639 growth (OD600 over 24 h), iturin variants at the higher (mixture) concentration: each analog at 7.35 µM; for effect on B. velezensis UMAF6639 growth (OD600 over 24 h), iturin variants at the higher (mixture) concentration / effect on B. velezensis UMAF6639 growth (OD600 over 24 h), iturins at physiological concentration: Figure 6A-E; for effect on B. velezensis UMAF6639 growth (OD600 over 24 h), iturins at physiological concentration: mix 7.35 µM, C13 1.27, C14 2.39, C15 0.76, C16 1.96, C17 0.93 µM
Experimental: To analyze the toxicity of the lipopeptide variants toward B. velezensis UMAF6639, the wells of 96-well plates with 200 μL of LB medium were inoculated with 5 μL of a bacterial suspension (OD600 = 1), and every analog was added at the desired concentration.
Methanol concentrations used for lipopeptide treatment in each condition ranged from 0.005 to 4.3%, and the maximum was used as a control to confirm that was not harmful for Bacillus growth. OD600 values were measured in a plate reader (FLUOstar Omega reader, BMG LabTech) in kinetic mode with temperature control (28 °C), with measurements taken every 20 min.

B. velezensis UMAF6639 [2] = test: Bacterial counts (CFU) of treated cultures; assay type: cell-based, Bacillus velezensis; conditions: analogue at its physiological concentration, sampled 14 h after treatment; compared with methanol control; Figure 7A
[3] = test system: Fusarium oxysporum f. sp. radicis-lycopersici; conditions: antagonizing Fusarium oxysporum f. sp. radicis-lycopersici; cited from earlier work
From the text: In another recent study, plipastatins, fengycin analogues produced by B. subtilis, were reported to interact with oil bodies (OBs) of the melon seed endosperm, accelerating lipid mobilization and resulting in plant growth promotion (PGP) and immunization.[12] […] Because fengycin B variants have the same fatty acid length, the amino acid at position 6 of the peptide moiety, which differs between fengycin A and B,[46] is important for t ...

[4] = test system: Melon seeds (Rochet Panal - Fitó); test: Promotion of radicle growth evaluation in melon seeds; assay type: in vivo; conditions: seeds bathed 1 h, 5 d at 25 °C in the dark; each analog at mixture concentration (7.35 µM); Figure 5A bottom
Experimental: Melon seeds (Rochet Panal - Fitó) were surface sterilized with 0.1% sodium hypochlorite and washed twice with distilled water. Seed treatment with the purified variants was performed by bathing the seeds for 1 h at room temperature. The analog concentrations were set to the physiological concentrations obtained from previous calibrations. In addition, a second concentration was assayed as if each analog was the only one produced to reach the same concentration as that of the mixture of each lipopeptide family (Table S3). Since each lipopeptide fraction was reconstituted in methanol, water-treated seeds with the highest concentration of methanol used for lipopeptide treatment were used as control. The methanol concentration ranged from 0.004 to 0.025% for iturins, 0.009 to 0.067% for fengycins and 0.018 to 0.050% for surfactins. The seeds were placed in Petri dishes with moist filter paper and maintained in growth chambers at 25 °C for 5 d under dark conditions. The radicle growth-promoting effects were analyzed on the basis of the radicle areas measured 5 days after seed treatment using Fiji software.[28]

Substance: Glu-Leu/Ile-Leu-Val-Asp-Leu-Leu/Ile (lariat or depsi) [C12-surfactin, surfactin analogue with C12 fatty acid, surfactin Fraction A]
- antifungal activity (fungal growth, OD600), surfactins at physiological concentration (B. cinerea; B. cinerea, PDB, mix 65.83 µM, C12 3.67, C13 16.93, C14 20.49, C15 21.85, C16 4.11 µM (Table S3), Figure 4C left): no significant antifungal activity at physiological concentrations, except for the C12 analog
- toxicity to B. velezensis UMAF6639 (OD600 over 24 h), surfactin variants at the mixture concentration (B. velezensis UMAF6639 [1]): most toxic

Substance: Glu-Leu/Ile-Leu-Val-Asp-Leu-Leu/Ile (lariat or depsi) [C13-surfactin, surfactin analogue with C13 fatty acid, surfactin Fraction B]
- effect on B. velezensis UMAF6639 growth (OD600 over 24 h), surfactins at physiological concentration (B. velezensis UMAF6639 [1]): considerable increase in the OD values
- bacterial counts (CFU) of B. velezensis UMAF6639 cultures (B. velezensis UMAF6639 [2]): increased bacterial counts

Substance: Glu-Leu/Ile-Leu-Val-Asp-Leu-Leu/Ile (lariat or depsi) [C15-surfactin, surfactin analogue with C15 fatty acid, surfactin Fractions E, F and G]
- effect on B. velezensis UMAF6639 growth (OD600 over 24 h), surfactins at physiological concentration (B. velezensis UMAF6639 [1]): delayed bacterial growth

Substance: Glu-Leu/Ile-Leu-Val-Asp-Leu-Leu/Ile (lariat or depsi) [C16-surfactin, surfactin analogue with C16 fatty acid, surfactin Fraction H]
- antifungal activity (fungal growth, OD600), surfactin variants at increased concentration (B. cinerea; each analog at mixture concentration (65.83 µM), B. cinerea, PDB, Figure 4C right): comparable to that of the positive control
- toxicity to B. velezensis UMAF6639 (OD600 over 24 h), surfactin variants at the mixture concentration (B. velezensis UMAF6639 [1]): most toxic
- effect on B. velezensis UMAF6639 growth (OD600 over 24 h), surfactins at physiological concentration (B. velezensis UMAF6639 [1]): delayed bacterial growth

Substance: Glu-Orn-Tyr-Thr-Glu-Ala/Val-Pro-Gln-Thr-Ile (lariat or depsi) [C14-fengycin B, fengycin B variant with C14 fatty acid, fengycin Fraction B]
- antifungal activity (fungal growth, OD600), fengycin variants at the highest concentration tested (B. cinerea; each fraction at mixture concentration (25.60 µM), B. cinerea, PDB, Figure 4B right): weak antifungal activity
- effect on B. velezensis UMAF6639 growth (OD600 over 24 h), fengycin fractions at the highest (mixture) concentration (B. velezensis UMAF6639 [1]; each fraction at 25.60 µM, Figure 6F-J): more pronounced
- effect on B. velezensis UMAF6639 growth (OD600 over 24 h), fengycins at physiological (lower) concentration (B. velezensis UMAF6639 [1]; mix 25.60 µM, fractions B 3.96, C 5.44, D 2.50, E 11.21, F 2.22 µM, Figure 6F-J): slightly delayed growth

Substance: Glu-Orn-Tyr-Thr-Glu-Ala/Val-Pro-Gln-Thr-Ile (lariat or depsi) [fengycin A, fengycin variant with Ala at position 6; literature MIC comparison]
- minimal inhibitory concentration [3]: notably greater than that of fengycin B

Substance: Ser-Asn-Pro-Gln-Asn-Tyr-Asn (head to tail) [C13-iturin A, iturin A analogue with C13 fatty acid chain, iturin Fraction A, purified from B. velezensis UMAF6639]
- melon seed radicle growth promotion (radicle area), iturin variants at the same concentration [4]: compromised root development
- effect on B. velezensis UMAF6639 growth (OD600 over 24 h), iturin variants at the higher (mixture) concentration (B. velezensis UMAF6639 [1]): harmless to Bacillus cells
- effect on B. velezensis UMAF6639 growth (OD600 over 24 h), iturins at physiological concentration (B. velezensis UMAF6639 [1]): harmless to Bacillus cells

Substance: Ser-Asn-Pro-Gln-Asn-Tyr-Asn (head to tail) [C14-iturin A, iturin A analogue with C14 fatty acid chain, iturin Fraction B, purified from B. velezensis UMAF6639]
- melon seed radicle growth promotion (radicle area), iturin variants at the same concentration [4]: compromised root development
- effect on B. velezensis UMAF6639 growth (OD600 over 24 h), iturin variants at the higher (mixture) concentration (B. velezensis UMAF6639 [1]): bacterial growth was slightly delayed
- effect on B. velezensis UMAF6639 growth (OD600 over 24 h), iturins at physiological concentration (B. velezensis UMAF6639 [1]): no difference from the control

Substance: Ser-Asn-Pro-Gln-Asn-Tyr-Asn (head to tail) [C15-iturin A, iturin A analogue with C15 fatty acid chain, iturin Fraction C, purified from B. velezensis UMAF6639]
- antifungal activity (fungal growth, OD600), iturins at physiological concentration (B. cinerea; B. cinerea 100 spores/well in PDB, 150 rpm, mix 7.35 µM, C13 1.27, C14 2.39, C15 0.76, C16 1.96, C17 0.93 µM (Table S3), Figure 4A left): failed to exhibit antifungal activity
- antifungal activity (fungal growth, OD600), iturin variants at the concentration of the entire mixture (B. cinerea; each variant at 7.35 μM, B. cinerea, PDB, Figure 4A right): sole active analog
- melon seed radicle growth promotion (radicle area), iturin variants at the same concentration [4]: significantly promoted radicle growth
- effect on B. velezensis UMAF6639 growth (OD600 over 24 h), iturin variants at the higher (mixture) concentration (B. velezensis UMAF6639 [1]): decrease in the optical density, the values remained above those of the untreated control
- effect on B. velezensis UMAF6639 growth (OD600 over 24 h), iturins at physiological concentration (B. velezensis UMAF6639 [1]): considerable increase in the OD600 value
- bacterial counts (CFU) of B. velezensis UMAF6639 cultures (B. velezensis UMAF6639 [2]): increased bacterial counts

Substance: Ser-Asn-Pro-Gln-Asn-Tyr-Asn (head to tail) [C16-iturin A, iturin A analogue with C16 fatty acid chain, iturin Fraction D, purified from B. velezensis UMAF6639]
- melon seed radicle growth promotion (radicle area), iturin variants at the same concentration [4]: significantly promoted radicle growth
- effect on B. velezensis UMAF6639 growth (OD600 over 24 h), iturin variants at the higher (mixture) concentration (B. velezensis UMAF6639 [1]): bacterial growth was slightly delayed
- effect on B. velezensis UMAF6639 growth (OD600 over 24 h), iturins at physiological concentration (B. velezensis UMAF6639 [1]): no difference from the control

Substance: Ser-Asn-Pro-Gln-Asn-Tyr-Asn (head to tail) [C17-iturin A, iturin A analogue with C17 fatty acid chain, iturin Fraction E, purified from B. velezensis UMAF6639]
- melon seed radicle growth promotion (radicle area), iturin variants at the same concentration [4]: slightly reduced the root area
- effect on B. velezensis UMAF6639 growth (OD600 over 24 h), iturin variants at the higher (mixture) concentration (B. velezensis UMAF6639 [1]): completely arrested B. velezensis growth
